Columns and labels:
Type in all cases: functional
[1] = system: RPMI-8226; assay: Cytotoxicity against human RPMI8226 cells assessed as growth inhibition
[2] = system: HL-60(TB); assay: Cytotoxicity against human HL-60(TB) cells assessed as growth inhibition
[3] = system: K562; assay: Cytotoxicity against human K562 cells assessed as growth inhibition
[4] = system: CCRF-CEM; assay: Cytotoxicity against human CCRF-CEM cells assessed as growth inhibition
[5] = system: MDA-MB-468; assay: Cytotoxicity against human MDA-MB-468 cells assessed as growth inhibition
[6] = system: T47D; assay: Cytotoxicity against human T47D cells assessed as growth inhibition
[7] = system: BT-549; assay: Cytotoxicity against human BT549 cells assessed as growth inhibition
[8] = Cytotoxicity against human Hs 578T cells assessed as growth inhibition
[9] = system: MDA-MB-231; assay: Cytotoxicity against human MDA-MB-231 cells assessed as growth inhibition
[10] = system: MCF7; assay: Cytotoxicity against human MCF7 cells assessed as growth inhibition
[11] = system: DU-145; assay: Cytotoxicity against human DU145 cells assessed as growth inhibition
[12] = system: PC-3; assay: Cytotoxicity against human PC3 cells assessed as growth inhibition
[13] = system: TK-10; assay: Cytotoxicity against human TK10 cells assessed as growth inhibition
[14] = Cytotoxicity against human UO31 cells assessed as growth inhibition; details: UO-31
[15] = system: SN12C; assay: Cytotoxicity against human SN12C cells assessed as growth inhibition
[16] = system: RXF 393; assay: Cytotoxicity against human RXF393 cells assessed as growth inhibition
[17] = system: CAKI-1; assay: Cytotoxicity against human CAKI-1 cells assessed as growth inhibition
[18] = system: ACHN; assay: Cytotoxicity against human ACHN cells assessed as growth inhibition
[19] = system: 786-0; assay: Cytotoxicity against human 786-0 cells assessed as growth inhibition
[20] = system: A498; assay: Cytotoxicity against human A498 cells assessed as growth inhibition
[21] = system: SK-OV-3; assay: Cytotoxicity against human SKOV3 cells assessed as growth inhibition
[22] = Cytotoxicity against human NCI-ADR-RES cells assessed as growth inhibition
[23] = Cytotoxicity against human OVCAR8 cells assessed as growth inhibition; details: OVCAR-8
[24] = Cytotoxicity against human OVCAR5 cells assessed as growth inhibition; details: OVCAR-5
[25] = Cytotoxicity against human OVCAR4 cells assessed as growth inhibition; details: OVCAR-4
[26] = Cytotoxicity against human OVCAR3 cells assessed as growth inhibition; details: OVCAR-3
[27] = Cytotoxicity against human UACC62 cells assessed as growth inhibition; details: UACC-62
[28] = system: IGROV-1; assay: Cytotoxicity against human IGROV1 cells assessed as growth inhibition
[29] = Cytotoxicity against human UACC257 cells assessed as growth inhibition; details: UACC-257
[30] = system: SK-MEL-5; assay: Cytotoxicity against human SK-MEL-5 cells assessed as growth inhibition
[31] = system: SK-MEL-28; assay: Cytotoxicity against human SK-MEL-28 cells assessed as growth inhibition
[32] = system: SK-MEL-2; assay: Cytotoxicity against human SK-MEL-2 cells assessed as growth inhibition
[33] = system: MDA-MB-435; assay: Cytotoxicity against human MDA-MB-435 cells assessed as growth inhibition
[34] = system: M14; assay: Cytotoxicity against human M14 cells assessed as growth inhibition
[35] = system: Malme-3M; assay: Cytotoxicity against human MALME-3M cells assessed as growth inhibition
[36] = system: LOX IMVI; assay: Cytotoxicity against human LOXIMVI cells assessed as growth inhibition
[37] = system: U-251; assay: Cytotoxicity against human U251 cells assessed as growth inhibition
[38] = system: SNB-75; assay: Cytotoxicity against human SNB75 cells assessed as growth inhibition
[39] = system: SNB-19; assay: Cytotoxicity against human SNB19 cells assessed as growth inhibition
[40] = system: SF-295; assay: Cytotoxicity against human SF295 cells assessed as growth inhibition
[41] = system: SF-539; assay: Cytotoxicity against human SF539 cells assessed as growth inhibition
[42] = system: SF-268; assay: Cytotoxicity against human SF268 cells assessed as growth inhibition
[43] = system: SW-620; assay: Cytotoxicity against human SW620 cells assessed as growth inhibition
[44] = system: KM12; assay: Cytotoxicity against human KM12 cells assessed as growth inhibition
[45] = system: HT-29; assay: Cytotoxicity against human HT-29 cells assessed as growth inhibition
[46] = Cytotoxicity against human HCT15 cells assessed as growth inhibition; details: HCT-15
[47] = system: HCT-116; assay: Cytotoxicity against human HCT116 cells assessed as growth inhibition
[48] = system: HCC 2998; assay: Cytotoxicity against human HCC2998 cells assessed as growth inhibition
[49] = system: NCI-H522; assay: Cytotoxicity against human NCI-H522 cells assessed as growth inhibition
[50] = system: COLO 205; assay: Cytotoxicity against human COLO205 cells assessed as growth inhibition
[51] = system: NCI-H460; assay: Cytotoxicity against human NCI-H460 cells assessed as growth inhibition
[52] = system: NCI-H23; assay: Cytotoxicity against human NCI-H23 cells assessed as growth inhibition
[53] = system: NCI-H322M; assay: Cytotoxicity against human NCI-H322M cells assessed as growth inhibition
[54] = system: NCI-H226; assay: Cytotoxicity against human NCI-H226 cells assessed as growth inhibition
[55] = system: HOP-62; assay: Cytotoxicity against human HOP62 cells assessed as growth inhibition
[56] = system: HOP-92; assay: Cytotoxicity against human HOP92 cells assessed as growth inhibition
[57] = system: A549; assay: Cytotoxicity against human A549 cells assessed as growth inhibition
[58] = Cytotoxicity against human EKVX cells assessed as growth inhibition
[59] = system: SR; assay: Cytotoxicity against human SR cells assessed as growth inhibition
[60] = system: MOLT-4; assay: Cytotoxicity against human MOLT4 cells assessed as growth inhibition

Molecule Cc1cc(/C=C2\CCc3c([nH]c4ccccc34)C2=O)cc(C)c1O has a GI50 [1] of 470 nM, a GI50 [2] of 210 nM and a GI50 [3] of 320 nM. For the same molecule, the GI50 [4] was 360 nM, the GI50 [5] was 290 nM and the GI50 [6] was 740 nM. For the same molecule, the GI50 [7] was 530 nM, the GI50 [8] was 380 nM and the GI50 [9] was 1060 nM. For the same molecule, the GI50 [10] was 350 nM, the GI50 [11] was 540 nM and the GI50 [12] was 1060 nM. It also gave a GI50 [13] of 540 nM, a GI50 [14] of 450 nM and a GI50 [15] of 620 nM. It also gave a GI50 [16] of 520 nM, a GI50 [17] of 610 nM and a GI50 [18] of 770 nM. The GI50 [19] was 880 nM, the GI50 [20] was 1830 nM and the GI50 [21] was 470 nM. It also gave a GI50 [22] of 310 nM, a GI50 [23] of 530 nM and a GI50 [24] of 2350 nM. The GI50 [25] was 1350 nM, the GI50 [26] was 330 nM and the GI50 [27] was 420 nM. The GI50 [28] was 740 nM, the GI50 [29] was 370 nM and the GI50 [30] was 330 nM. For the same molecule, the GI50 [31] was 740 nM, the GI50 [32] was 320 nM and the GI50 [33] was 120 nM. For the same molecule, the GI50 [34] was 340 nM, the GI50 [35] was 380 nM and the GI50 [36] was 760 nM. For the same molecule, the GI50 [37] was 430 nM, the GI50 [38] was 290 nM and the GI50 [39] was 580 nM. The GI50 [40] was 1880 nM, the GI50 [41] was 320 nM and the GI50 [42] was 730 nM. For the same molecule, the GI50 [43] was 410 nM, the GI50 [44] was 390 nM and the GI50 [45] was 4320 nM. For the same molecule, the GI50 [46] was 420 nM, the GI50 [47] was 440 nM and the GI50 [48] was 2210 nM. The GI50 [49] was 130 nM, the GI50 [50] was 14200 nM and the GI50 [51] was 410 nM. For the same molecule, the GI50 [52] was 650 nM, the GI50 [53] was 530 nM and the GI50 [54] was 3290 nM. For the same molecule, the GI50 [55] was 650 nM, the GI50 [56] was 780 nM and the GI50 [57] was 550 nM. It also gave a GI50 [58] of 3380 nM, a GI50 [59] of 220 nM and a GI50 [60] of 560 nM.
For COc1cc2c(c(N)c1OC)C(=O)/C(=C\c1cc(C)c(O)c(C)c1)C2 [INDANOCINE], the GI50 [1] was 10 nM, the GI50 [2] was 10 nM and the GI50 [3] was 10 nM. For the same molecule, the GI50 [4] was 10 nM, the GI50 [6] was 100000 nM and the GI50 [7] was 10000 nM. For the same molecule, the GI50 [9] was 10 nM, the GI50 [10] was 10 nM and the GI50 [11] was 10 nM. For the same molecule, the GI50 [12] was 10 nM, the GI50 [13] was 79400 nM and the GI50 [14] was 80 nM. The GI50 [15] was 10 nM, the GI50 [16] was 30 nM and the GI50 [17] was 3980 nM. For the same molecule, the GI50 [18] was 60 nM, the GI50 [19] was 10 nM and the GI50 [20] was 7940 nM. For the same molecule, the GI50 [21] was 10 nM, the GI50 [22] was 10 nM and the GI50 [23] was 10 nM. It also gave a GI50 [24] of 630 nM, a GI50 [25] of 7940 nM and a GI50 [26] of 10 nM. For the same molecule, the GI50 [27] was 10 nM, the GI50 [28] was 40 nM and the GI50 [29] was 100000 nM. For the same molecule, the GI50 [30] was 10 nM, the GI50 [31] was 1000 nM and the GI50 [32] was 1000 nM. It also gave a GI50 [33] of 10 nM, a GI50 [34] of 10 nM and a GI50 [36] of 10 nM. It also gave a GI50 [37] of 20 nM, a GI50 [39] of 10 nM and a GI50 [40] of 60 nM. The GI50 [41] was 10 nM, the GI50 [42] was 10 nM and the GI50 [43] was 10 nM. For the same molecule, the GI50 [44] was 10 nM, the GI50 [45] was 2510 nM and the GI50 [46] was 10 nM. The GI50 [47] was 10 nM, the GI50 [48] was 2000 nM and the GI50 [49] was 10 nM. The GI50 [50] was 5010 nM, the GI50 [51] was 10 nM and the GI50 [52] was 10 nM. For the same molecule, the GI50 [53] was 10 nM, the GI50 [54] was 3980 nM and the GI50 [55] was 20 nM. For the same molecule, the GI50 [56] was 100000 nM, the GI50 [57] was 10 nM and the GI50 [58] was 10 nM. It also gave a GI50 [59] of 10 nM and a GI50 [60] of 10 nM.

Source: ChEMBL document CHEMBL3217497, “Design, synthesis and antiproliferative activity of indole analogues of indanocine” (2013)
